# Measured values taken from patent US7402696B2, “Benzene compounds” (Ajinomoto Co., Inc., priority 2004, dated 2008).
# Biological target: T1, ACC (acetyl CoA carboxylase) purified from liver of male SD rat (Rattus norvegicus, UniProt P11497)
# T1 construct: applied to a monomeric avidin sepharose column, and washed with buffer B. The ACC was eluted with buffer B containing 2 mM d-biotin; from tissue; host or cells: liver of male SD rat
# Experiment: Measurement of ACC inhibition activity ([14C]-NaHCO3 incorporation)
# Format: biochemical
# Details: ACC inhibition activity rate at 1 μM; Table 2-III, Mode 3 acetylene/oxadiazole/thiazole compounds (numbers = x-III); read-out: ACC Inhibition (%)
# Method: A male SD rat was deprived of food for two days and then fed a high-sucrose diet (component) for two days. While anesthetized with ether, the descending vena cava was cut upon, the animal was bled, and the liver was rapidly recovered. In an ice-cooled buffer solution A (225 mM mannitol, 75 mM sucrose, 10 mM Tris-HCl (pH 7.5), 0.05 mM EDTA, 5 mM potassium citrate, 2.5 mM MgCl2, 10 mg/L pepstatin A, 10 mg/L leupeptin, 1 mM PMSF), the liver was homogenized with a polytone homogenizer. A quantity of buffer A nine times the weight of the liver was added, the mixture was centrifuged for 10 minutes at 1,000 g, the supernatant was recovered, and the supernatant was centrifuged for another 10 minutes at 17,000 g.
# Ammonium sulfate was added to 35 percent saturation to the obtained supernatant. The mixture was stirred for 45 minutes and then centrifuged for 10 minutes at 17,000 g. Buffer solution B (100 mM Tris-HCl (pH 7.5), 500 mM NaCl, 1 mM EDTA, 0.1 mM DTT, 10 percent glycerol, 10 mg/L pepstatin A, 10 mg/L leupeptin, 0.5 mM PMSF) was added to the obtained precipitate and dissolved. The solution was then centrifuged for 20 minutes at 40,000 g. The supernatant was dialyzed overnight against buffer C (100 mM Tris-HCl (pH 7.5), 500 mM NaCl, 1 mM EDTA, 0.1 mM DTT, 5 percent glycerol).
# The dialyzed supernatant was passed through a […], applied to a monomeric avidin sepharose column, and washed with buffer B. The ACC was eluted with buffer B containing 2 mM d-biotin.
# (2 Measurement of ACC Inhibition Activity)
# The compounds synthesized in the above-described embodiments were dissolved in DMSO and charged to glass vials. 250 μL of ACC-containing reaction solution (40 mM Tris-HCl (pH 7.5), 40 mM MgCl2, 40 mM sodium citrate, and 2 mM DTT) was added. The mixture was heated for 30 minutes at 37° C. in a thermostatic chamber and then cooled with ice. To reaction solution 1 was added 250 μL of reaction solution 2 containing [14C]—NaHCO3 (40 mM Tris-HCl (pH 7.5), 2 mM DTT, 8 mM ATP, 0.5 mM acetyl CoA) and the mixture was heated for 10 minutes at 37° C. 100 μL of 1N HCl was added to stop the reaction. Water in the reaction solution was removed with a centrifugal evaporator, a scintillator was added, the solid component was dissolved, and the 14C radioactivity was measured with a liquid scintillation counter. The ACC inhibition activity of each compound was calculated from the following equation and converted to the ACC inhibition activity rate (%) at 1 μM.
# ACC inhibition rate (%)=(1−(a−c)/(b−c))×100 a. Radioactivity when test drug added b: Radioactivity when test drug not added c: Blank* *Reaction solution 1 to which 100 μL of 1N HCl was added before mixing reaction solution 1 and reaction solution 2
row,SMILES,inhibition at 1 µM [%]
1,O=C(Nc1ccc(C#Cc2cccc(C(F)(F)F)c2)cc1)NC(Cc1ccccc1)C(=O)O (stereo not shown) [compound 66],73
2,O=C(O)CCC(NC(=O)OCc1ccccc1)C(=O)Nc1ccc(-c2csc(-c3ccccc3)n2)cc1 (stereo not shown) [compound 104],66
3,O=C(O)c1ccc(-c2nc(-c3ccc(C#Cc4cccc(C(F)(F)F)c4)cc3)no2)cc1 [compound 28],58
4,O=C1c2cccc3cccc(c23)C(=O)N1c1cccc(C#Cc2cccc(C(F)(F)F)c2)c1 [compound 70],62

# Next, values leading:
row,inhibition at 1 µM [%],SMILES
1,56,O=C(O)c1cccc(-c2nc(-c3ccc(C#Cc4cccc(C(F)(F)F)c4)cc3)no2)c1 [compound 27]
2,63,O=C(Nc1ccc(-c2csc(-c3ccccc3)n2)cc1)N[C@H](Cc1ccccc1)C(=O)O [compound 103]
3,53,O=C(O)c1ccc(-c2nc(-c3ccc(-c4csc(-c5ccc(C(F)(F)F)cc5)n4)cc3)no2)cc1 [compound 51]
4,52,O=C(O)c1ccccc1C(=O)Nc1ccc(-c2csc(-c3cc(C(F)(F)F)ccc3F)n2)cc1 [compound 99]
5,65,Nc1cccc(S(=O)(=O)Nc2ccc(-c3csc(-c4ccccc4)n3)cc2)c1 [compound 91]

# Same assay, conditions: ACC inhibition activity rate at 1 μM; Table 3-I, Mode 1 quinoline compounds (numbers = x-I); read-out: ACC Inhibition (%)
row,SMILES,inhibition at 1 µM [%]
1,CC(C)c1ccc(S(=O)(=O)NC(=O)C[C@H](NC(=O)c2ccc3nc(-c4cc(C(F)(F)F)cc(C(F)(F)F)c4)ccc3c2)C2CCCCC2)cc1 [compound 50],87
2,CCCCS(=O)(=O)NC(=O)CC(C)(NC(=O)c1ccc2nc(-c3cc(C(F)(F)F)cc(C(F)(F)F)c3)ccc2c1)c1ccccc1 (stereo not shown) [compound 56],47

# The next lines start with the values.
row,inhibition at 1 µM [%],SMILES
1,50,CCCCS(=O)(=O)NC(=O)CC(NC(=O)c1ccc2nc(-c3cc(C(F)(F)F)cc(C(F)(F)F)c3)ccc2c1)c1cccc2ccccc12 (stereo not shown) [compound 94]
2,46,CCCCS(=O)(=O)NC(=O)[C@@H]1C[C@@H]2C[C@@H](C2(C)C)[C@]1(C)NC(=O)c1ccc2nc(-c3cc(C(F)(F)F)cc(C(F)(F)F)c3)ccc2c1 [compound 58]
3,78,CCCCS(=O)(=O)NC(=O)c1ccccc1NC(=O)c1ccc2nc(-c3cc(C(F)(F)F)cc(C(F)(F)F)c3)ccc2c1 [compound 4]
4,53,O=C(Nc1ccccc1C(=O)O)c1ccc2nc(-c3cc(C(F)(F)F)cc(C(F)(F)F)c3)ccc2c1 [compound 3]
5,90,CCCCCC(=O)NS(=O)(=O)c1ccccc1NC(=O)c1ccc2nc(-c3cc(C(F)(F)F)ccc3F)ccc2c1 [compound 107]

# Same assay, conditions: ACC inhibition activity rate at 1 μM; Table 3-II, Mode 2 benzimidazole compounds (numbers = x-II); read-out: ACC Inhibition (%)
row,SMILES,inhibition at 1 µM [%]
1,CCCCCC(=O)NS(=O)(=O)c1ccccc1NC(=O)c1ccc2nc(-c3cccc(C(F)(F)F)c3)n(-c3ccccc3)c2c1 [compound 4],54
2,CC(C)(C)c1ccc(C(=O)NS(=O)(=O)c2ccccc2NC(=O)c2ccc3nc(-c4cccc(C(F)(F)F)c4)n(-c4ccccc4)c3c2)cc1 [compound 5],89

# Same assay, conditions: ACC inhibition activity rate at 1 μM; Table 4-A, further compounds of Modes 2 and 3; read-out: ACC Inhibition (%)
row,SMILES,inhibition at 1 µM [%]
1,COc1cccc(OC)c1C(=O)NS(=O)(=O)c1cccc(-c2nc(-c3ccc(-c4csc(-c5ccccc5)n4)cc3)no2)c1 [Compound 146-III],79
2,O=C(NS(=O)(=O)c1cccc(-c2nc(-c3ccc(-c4csc(-c5ccccc5)n4)cc3)no2)c1)c1ccccc1 [Compound 136-III],94
3,COC(=O)c1ccc(S(=O)(=O)NC(=O)c2cccc(-c3nc(-c4ccc(-c5csc(-c6ccccc6)n5)cc4)no3)c2)cc1 [Compound 140-III],92
4,Nc1ccccc1S(=O)(=O)NC(=O)c1cccc(-c2nc(-c3ccc(-c4csc(-c5ccccc5)n4)cc3)no2)c1 [Compound 137-III],96

# Same assay, conditions: ACC inhibition activity rate at 1 μM; Table 4-IV, Mode 4 benzenediamine compounds (numbers = x-IV); read-out: ACC Inhibition (%)
row,SMILES,inhibition at 1 µM [%]
1,COc1cccc(CNc2cc(-c3noc(-c4cccc(C(=O)NS(=O)(=O)c5ccccc5)c4)n3)ccc2N(C)CCC(C)C)c1 [compound 98],100
2,CC(C)CCN(C)c1ccc(-c2noc(-c3cccc(C(=O)NS(=O)(=O)c4cccc(C(=O)O)c4)c3)n2)cc1NCc1ccc(OCCO)cc1 [Compound 134-IV],89
3,CC(C)CCN(C)c1ccc(-c2noc(-c3cccc(C(=O)NS(=O)(=O)c4ccccc4)c3)n2)cc1NCc1nccn1C [compound 60],61
4,CC(C)CCN(C)c1ccc(-c2noc(-c3cccc(C(=O)NS(=O)(=O)c4ccccc4)c3)n2)cc1NCc1ccccc1O [compound 97],98
5,CC(C)CCN(C)c1ccc(C(=O)NC(CC(=O)NS(=O)(=O)c2ccccc2)C2CCCCC2)cc1NCc1nccs1 (stereo not shown) [compound 92],49
6,CC(C)CCN(C)c1ccc(-c2noc(-c3cccc(C(=O)NS(=O)(=O)c4ccccc4)c3)n2)cc1NC(=O)OCc1ccccc1 [compound 44],100
7,CC(C)CCN(C)c1ccc(C(=O)NC(CC(=O)NS(=O)(=O)c2ccccc2)C2CCCCC2)cc1NCc1ccco1 (stereo not shown) [compound 90],62
8,CC(C)CCN(C)c1ccc(-c2noc(-c3cccc(C(=O)NS(=O)(=O)c4ccccc4)c3)n2)cc1NCc1ccccc1 [compound 45],100
9,Cc1ccccc1S(=O)(=O)NC(=O)CC(NC(=O)c1ccc(N(C)CCC(C)C)c(NCc2ccccc2)c1)C1CCCCC1 (stereo not shown) [compound 82],56
10,CCCCCC(=O)NS(=O)(=O)c1ccccc1NC(=O)c1ccc(NCCC(C)C)c(NC(=O)c2cc(C(F)(F)F)cc(C(F)(F)F)c2)c1 [compound 20],85
11,CCCCCC(=O)NS(=O)(=O)c1ccccc1NC(=O)c1ccc(Nc2ccc(C(F)(F)F)cc2)c(NC(=O)c2ccncc2)c1 [compound 33],61
12,CC(C)CCN(C)c1ccc(C(=O)NC(CC(=O)NS(=O)(=O)c2ccccc2)c2ccccc2)cc1NCc1ccccc1 (stereo not shown) [compound 112],75

# Other lines, results leading:
row,inhibition at 1 µM [%],SMILES
1,72,Cc1ccccc1S(=O)(=O)NC(=O)[C@@H]1CCCC[C@@H]1NC(=O)c1ccc(N(C)CCC(C)C)c(NCc2ccccc2)c1 [Compound 146-IV]
2,92,CCCCCC(=O)NS(=O)(=O)c1ccccc1NC(=O)c1ccc(Nc2ccc(C(F)(F)F)cc2)c(NC(=O)c2ccc(C(F)(F)F)cc2)c1 [compound 28]
3,100,Cc1ccccc1S(=O)(=O)NC(=O)c1cccc(-c2nc(-c3ccc(N(C)CCC(C)C)c(NC(C)c4ccccc4)c3)no2)c1 (stereo not shown) [compound 107]
4,97,CCCCCC(=O)NS(=O)(=O)c1ccccc1NC(=O)c1ccc(Nc2ccccc2)c(NC(=O)c2ccc(C(F)(F)F)cc2)c1 [compound 25]
5,90,CC(C)CCN(C)c1ccc(C(=O)NC(CC(=O)NS(=O)(=O)c2ccccc2)C2CCCCC2)cc1NCC1CCCCC1 (stereo not shown) [compound 55]
6,99,CC(C)CCN(C)c1ccc(-c2noc(-c3cccc(C(=O)NS(=O)(=O)c4ccccc4)c3)n2)cc1NC(=O)c1cccc(C(F)(F)F)c1 [compound 39]
7,94,CC(C)CCN(C)c1ccc(C(=O)N[C@H]2CCCC[C@H]2C(=O)NS(=O)(=O)c2ccccc2)cc1NCc1ccccc1 [Compound 144-IV]
8,64,Cc1ccccc1S(=O)(=O)NC(=O)CC(NC(=O)c1ccc(N(C)CCC(C)C)c(NCc2ccccc2[N+](=O)[O-])c1)C1CCCCC1 (stereo not shown) [compound 124]
9,96,CC(C)CCN(C)c1ccc(C(=O)NC(CC(=O)NS(=O)(=O)c2ccccc2)C2CCCCC2)cc1N(C)CC1CCCCC1 (stereo not shown) [compound 94]
10,87,CC(C)CCN(C)c1ccc(-c2noc(-c3cccc(C(=O)NS(=O)(=O)c4ccccc4)c3)n2)cc1NC(C)C [compound 48]
11,93,CC(C)CCN(C)c1ccc(-c2noc(-c3cccc(C(=O)NS(=O)(=O)c4cn(C)cn4)c3)n2)cc1N(C)Cc1ccc(OCCO)cc1 [Compound 142-IV]
12,100,CC(C)CCN(C)c1ccc(-c2noc(-c3cccc(C(=O)NS(=O)(=O)c4ccccc4)c3)n2)cc1NCC1CCCCC1 [compound 47]
